This note sets out measurements from patent publication US10894787B2, “Modulators of the GPR119 receptor and the treatment of disorders related thereto” (Arena Pharmaceuticals, Inc., priority 2010, dated 2021).

This data set can be described thus: Dynamic moisture-sorption (DMS) analysis. Type of data set: physicochemical. The conditions noted are these: at about 90% RH and 25° C. As to the method: A dynamic moisture-sorption (DMS) study was conducted using a dynamic moisture-sorption analyzer, VTI Corporation, SGA-100. Samples were prepared for DMS analysis by placing 5 mg to 20 mg of a sample in a tared sample holder. The sample was placed on the hang-down wire of the VTI balance. A drying step was run, typically at 40° C. and 0.5-1% RH for 1 h. The isotherm temperature is 25° C. Defined % RH holds typically ranged from 10% RH to 90% RH, with intervals of 10 to 20% RH. A % weight change smaller than 0.010% over 10 min, or up to 2 h, whichever occurred first, was required before continuing to the next % RH hold. The water content of the sample equilibrated as described above was determined at each % RH hold.

Consider `CN(C)C(=O)c1ccc(Nc2ncnc(N3CCC(c4nc(C(C)(C)F)no4)CC3)c2F)c(F)c1` [Compound 1 (Anhydrous Form), 3-fluoro-4-(5-fluoro-6-(4-(3-(2-fluoropropan-2-yl)-1,2,4-oxadiazol-5-yl)piperidin-1-yl)pyrimidin-4-ylamino)-N,N-dimethylbenzamide], for which the DMS weight gain result was “FIG. 8: Less than about 0.35% weight gain at about 90% RH”.
